Source: US8273769B2, “Phenoxy acetic acid derivatives” (Merck Serono SA, priority 2009, dated 2012)

Columns and labels:
CRTH2 [1] = target: T1, CRTH2 (Homo sapiens, UniProt Q9Y5Y4); experiment: Radioligand binding Scintillation Proximity Assay ([3H]PGD2, hCRTH2-CHO cell membranes); set-up: host or cells: CHO cells; details: 1.5 nM [3H]PGD2, hCRTH2-CHO cell membranes, SPA
T1 sequence (Q9Y5Y4 1-395): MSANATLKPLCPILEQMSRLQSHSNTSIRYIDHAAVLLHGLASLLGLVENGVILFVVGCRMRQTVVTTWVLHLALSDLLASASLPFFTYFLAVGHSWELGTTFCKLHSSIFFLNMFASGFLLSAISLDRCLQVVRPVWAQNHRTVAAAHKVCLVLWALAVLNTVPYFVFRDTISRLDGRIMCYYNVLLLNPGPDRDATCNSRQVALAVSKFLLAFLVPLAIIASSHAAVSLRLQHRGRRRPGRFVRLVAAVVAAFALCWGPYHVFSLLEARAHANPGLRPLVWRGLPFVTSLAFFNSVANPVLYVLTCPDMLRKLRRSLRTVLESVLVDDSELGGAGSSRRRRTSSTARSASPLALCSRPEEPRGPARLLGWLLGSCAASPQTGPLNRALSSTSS
Outline: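 SPA competition binding at room temperature, 90 min with agitation: 1.5 nM [3H]PGD2, 10-50 μg/ml hCRTH2-CHO membrane protein, WGA SPA beads, HEPES pH 7.4 with 10 mM MnCl2, 1% DMSO. Non-specific binding defined with 10 μM PGD2; scintillation counting.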

CRTH2 [2] = target: T1, CRTH2; experiment: [35S]GTPγS binding assay (CHO-CRTH2 cell membranes); type: biochemical; set-up: expressed in transfected cells; host or cells: CHO-CRTH2 cells; details: for IC50: antagonist mode, fixed concentration of PGD2 (EC80)
Method: Adherent CHO cells expressing hCRTH2 (Euroscreen, Belgium) were cultured in 225 cm^2 cell culture flasks (Corning, USA) in 30 ml of medium. After two rinses of phosphate buffered saline (PBS), cells were harvested in 10 ml of PBS containing 1 mM EDTA, centrifuged at 500×g for 5 min at 4° C. and frozen at −80° C. The pellet was re-suspended in 50 mM Tris-HCl, pH 7.4, 2 mM EDTA, 250 mM Sucrose, containing protease inhibitor cocktail tablets, (Complete EDTA-free, Roche, Germany) and incubated 30 min at 4° C. Cells were disrupted by nitrogen cavitation (Parr Instruments, USA) at 4° C. (800 p.s.i. for 30 min), and centrifuged at 500×g for 10 min at 4° C. Pellet containing nuclei and cellular debris was discarded and supernatant was centrifuged 60 min at 4° C. at 45000×g. Membrane pellet was re-suspended in storage buffer (10 mM HEPES/KOH pH 7.4, 1 mM EDTA, 250 mM sucrose, protease inhibitor cocktail tablets) using Dounce homogenization and frozen in liquid nitrogen, and stored at −80° C.
The [^35S]GTPγS assay measures the increase in guanine nucleotide exchange at G-proteins in cell membranes, resulting from agonist (PGD2) binding to CRTH2. This process can be monitored in vitro by incubating cell membranes containing G-proteins and CRTH2 with GDP and [^35S]GTPγS, a radiolabeled, hydrolysis-resistant analogue of GTP (see, Harrison et al., Life Sciences 74, 489-508, 2003). The addition of a Compounds of Formula (I) results in binding to CRTH2 and thus in an inhibition of agonist binding, which can be monitored as inhibition of the stimulation of GTP/GDP exchange.
Briefly, Compounds of Formula (I) are incubated in 96-well scintillating white polystyrene plates (Perkin Elmer, USA) in a final volume of 200 μl containing 20 mM HEPES/KOH pH 7.4, 3 mM MgCl2, 10 μg/ml Saponin, 5 μM GDP, 75 mM NaCl and 2% of dimethylsulphoxide (DMSO). Reaction is triggered by the addition of 5-10 μg of CHO-CRTH2 cell membranes and 0.15 nM [^35S]GTPγS. After 60 min incubation at 30° C., reaction is stopped by centrifugation at 700×g, at 4° C. for 10 minutes and supernatant is removed. The radioactivity coming from the [^35S]GTPγS bound on centrifuged cell membranes is recorded using a 1450 Micro-beta scintillation counter. For IC50 determination, increasing concentrations of compounds are incubated in presence of a fixed concentration of PGD2 (EC80). For EC50 measurements, compounds are incubated without addition of PGD2. Basal [^35S]GTPγS activity is determined without addition of any ligands or compounds. 100% [^35S]GTPγS activity is measured by the addition of 1 μM of PGD2.

CRTH2 [3] = target: T1, CRTH2; experiment: Cellular Dielectric Spectroscopy (CHO-CRTH2 cells); type: cell-based; set-up: expressed in transfected cells; host or cells: CHO-CRTH2 cells; details: for IC50: antagonist mode, fixed concentration of PGD2 (EC80); for EC50 / Emax: partial agonists, agonist activity without PGD2
Method: Cellular Dielectric Spectroscopy (CDS) is a label-free technology based on the measurement of complex impedance changes (delta Z or dZ). Impedance (Z) is related to the ratio of voltage to current as described by Ohm's law (Z=V/I). In order to measure the changes in impedance that occur in response to receptor stimulation, mammalian cells are seeded onto a custom 96-well microliter plate that contains electrodes at the bottom of each well. Key contributors to the impedance measurements are changes in cell-substrate adherence, changes in cell shape and volume, and changes in cell-cell interactions. These factors individually or collectively affect the flow of current, influencing the magnitude and characteristics of the signal measured. G-protein coupled receptors ligand-induced activity can be measured using this technology and specific G protein coupling can be identified. Activities of reference agonist and antagonist molecules of CRTH2 have been measured using this assay and similar results were obtained compared to different functional assays.
CHO-CRTH2 cells are cultured in HAM's F12 (Lonza, Switzerland) supplemented with 10% foetal calf serum (PAA, Australia) and 400 μg/ml Geneticin. 100000 cells/well are seeded in standard 96W Microplates (MDS Analytical Technologies) and incubated at 37° C. in 5% CO2 for 24 hours. Cells are washed twice with 135 μl of cell key buffer (Hank's Balanced Salt Solution 1× (HBSS) (Invitrogen) supplemented with 10 mM HEPES pH 7.4 in presence of 1% DMSO). For EC50 determination. 15 μl of increasing concentration of Compounds of Formula (I) diluted in cell key buffer are added to the cells and agonist activity is then recorded for 25 minutes. […] Results are expressed as the amplitude between the highest and the lowest signal produced (max-min). Basal and maximum activities are measured, respectively in absence or presence of PGD2 (EC80).

[4] = inverse agonists, 100% of Emax = activity with 1 μM PGD2

CS(=O)(=O)c1cc(C#Cc2cc(Cl)ccc2OCC(=O)O)ccc1-c1ccccc1 [Example 140, (4-chloro-2-{[2-(methylsulfonyl)biphenyl-4-yl]ethynyl}phenoxy)acetic acid] gave an IC50 (CRTH2 [1]) of 6 nM, an IC50 (CRTH2 [2]) of 37 nM and an Emax (CRTH2 [2]; [4]) of -11%.

Cc1ccc(S(=O)(=O)c2ccccc2)cc1C#Cc1cc(Cl)ccc1OCC(=O)O [Example 95, (4-chloro-2-{[2-methyl-5-(phenylsulfonyl)phenyl]ethynyl}phenoxy)acetic acid] was tested, and the IC50 (CRTH2 [1]) was 9 nM, the IC50 (CRTH2 [2]) was 10 nM and the Emax (CRTH2 [2]; [4]) was -17%. The IC50 (CRTH2 [3]) was 84 nM.

Compound Cc1ccncc1C#Cc1cc(C#N)ccc1OCC(=O)O [Example 44, {4-cyano-2-[(4-methylpyridin-3-yl)ethynyl]phenoxy}acetic acid] has an IC50 (CRTH2 [1]) of 60 nM, an Emax (CRTH2 [2]; partial agonist, without PGD2, 100% = activity with 1 μM PGD2) of 13% and an EC50 (CRTH2 [2]; partial agonist, without addition of PGD2) of 40 nM. The EC50 (CRTH2 [3]) was 115 nM and the Emax (CRTH2 [3]) was 59%.

O=C(O)COc1ccc(Cl)cc1C#Cc1cccc(S(=O)(=O)CCO)c1 [Example 20, [4-chloro-2-({3-[(2-hydroxyethyl)sulfonyl]phenyl}ethynyl)phenoxy]acetic acid] was tested, and the IC50 (CRTH2 [1]) was 12 nM and the IC50 (CRTH2 [2]) was 288 nM.

Compound CCCS(=O)(=O)c1ccc(C)c(C#Cc2cc(C#N)ccc2OCC(=O)O)c1 [Example 40, (4-cyano-2-{[2-methyl-5-(propylsulfonyl)phenyl]ethynyl}phenoxy)acetic acid] has an IC50 (CRTH2 [1]) of 9 nM and an IC50 (CRTH2 [2]) of 39 nM.

CS(=O)(=O)c1ccc(Cl)c(C#Cc2cc(Cl)ccc2OCC(=O)O)c1 [Example 59, (4-chloro-2-{[2-chloro-5-(methylsulfonyl)phenyl]ethynyl}phenoxy)acetic acid] was tested, and the IC50 (CRTH2 [1]) was 6 nM, the IC50 (CRTH2 [2]) was 6 nM and the IC50 (CRTH2 [3]) was 14 nM.

Work on CCCc1ccc(S(C)(=O)=O)cc1C#Cc1cc(C#N)ccc1OCC(=O)O [Example 56, (4-cyano-2-{[5-(methylsulfonyl)-2-propylphenyl]ethynyl}phenoxy)acetic acid] yielded an IC50 (CRTH2 [1]) of 30 nM, an IC50 (CRTH2 [2]) of 49 nM and an IC50 (CRTH2 [3]) of 53 nM.

For CCCS(=O)(=O)c1ccc(C)c(C#Cc2cc(Cl)ccc2OC(C)C(=O)O)c1 (centres unmarked) [Example 173, 2-(4-chloro-2-{[2-methyl-5-(propylsulfonyl)phenyl]ethynyl}phenoxy)propanoic acid], the IC50 (CRTH2 [1]) was 1 nM and the IC50 (CRTH2 [2]) was 7 nM.

CCCS(=O)(=O)c1cccc(C#Cc2cc(-c3ccccc3)ccc2OCC(=O)O)c1 [Example 131, [(3-{[3-(Propylsulfonyl)phenyl]ethynyl}biphenyl-4-yl)oxy]acetic acid] gave an IC50 (CRTH2 [1]) of 24 nM, an EC50 (CRTH2 [3]) of 74 nM and an Emax (CRTH2 [3]) of 68%.

With CC(C)c1ccc(S(C)(=O)=O)cc1C#Cc1cc(C#N)ccc1OCC(=O)O [Example 71, (4-cyano-2-{[2-isopropyl-5-(methylsulfonyl)phenyl]ethynyl}phenoxy)acetic acid] the IC50 (CRTH2 [1]) was 16 nM and the IC50 (CRTH2 [3]) was 15 nM.

CC(=O)Nc1ccc(C#Cc2cc(Cl)ccc2OCC(=O)O)cc1 [Example 152, (2-{[4-(acetylamino)phenyl]ethynyl}-4-chlorophenoxy)acetic acid] gave an IC50 (CRTH2 [1]) of 28 nM and an Emax (CRTH2 [2]; [4]) of -13%.

CN(C)S(=O)(=O)c1cncc(C#Cc2cc(C#N)ccc2OCC(=O)O)c1 [Example 67, [4-cyano-2-({5-[(dimethylamino)sulfonyl]pyridin-3-yl}ethynyl)phenoxy]acetic acid] gave an IC50 (CRTH2 [1]) of 86 nM and an IC50 (CRTH2 [3]) of 34 nM.

CCCS(=O)(=O)c1ccc(F)c(C#Cc2cc(Cl)ccc2OC(C)C(=O)O)c1 (centres unmarked) [Example 168, 2-(4-chloro-2-{[2-fluoro-5-(propylsulfonyl)phenyl]ethynyl}phenoxy)propanoic acid] showed an IC50 (CRTH2 [1]) of 3 nM, an IC50 (CRTH2 [2]) of 9 nM and an Emax (CRTH2 [2]; [4]) of -13%.

O=C(O)COc1ccc(Cl)cc1C#Cc1cccc(Cl)c1 [Example 3, {4-chloro-2-[(3-chlorophenyl)ethynyl]phenoxy}acetic acid] was tested, and the IC50 (CRTH2 [1]) was 26 nM and the IC50 (CRTH2 [2]) was 105 nM.

In the case of CCCc1ccncc1C#Cc1cc(Cl)ccc1OCC(=O)O [Example 42, {4-chloro-2-[(4-propylpyridin-3-yl)ethynyl]phenoxy}acetic acid], the IC50 (CRTH2 [1]) is reported as 5 nM, the IC50 (CRTH2 [2]) is reported as 10 nM and the IC50 (CRTH2 [3]) is reported as 25 nM.

In the case of O=C(O)COc1ccc(Cl)cc1C#Cc1ccccc1Cl [Example 4, {4-chloro-2-[(2-chlorophenyl)ethynyl]phenoxy}acetic acid], the IC50 (CRTH2 [1]) is reported as 15 nM and the IC50 (CRTH2 [2]) is reported as 37 nM.

Work on CCCS(=O)(=O)c1cccc(C#Cc2cc(C#N)ccc2OCC(=O)O)c1 [Example 32, (4-cyano-2-{[3-(propylsulfonyl)phenyl]ethynyl}phenoxy)acetic acid] yielded an IC50 (CRTH2 [1]) of 25 nM and an IC50 (CRTH2 [2]) of 185 nM.

In the case of CC(C)Cc1ccncc1C#Cc1cc(Cl)ccc1OCC(=O)O [Example 43, {4-chloro-2-[(4-isobutylpyridin-3-yl)ethynyl]phenoxy}acetic acid], the IC50 (CRTH2 [1]) is reported as 6 nM and the IC50 (CRTH2 [3]) is reported as 269 nM.
